Measured values: ChEMBL document CHEMBL4627246, “Pyroglutamide-Based P2X7 Receptor Antagonists Targeting Inflammatory Bowel Disease” (J Med Chem, 2020)

Tests used:
Assay type in all cases: cell-based
RPMI-8226 = assay: Cytotoxicity against human RPMI8226 cells assessed as effect on cell growth at 10 uM incubated for 48 hrs by sulforhodamine B assay; conditions: rpmi-8226, 48 h
NCI-H23 = assay: Cytotoxicity against human NCI-H23 cells assessed as effect on cell growth at 10 uM incubated for 48 hrs by sulforhodamine B assay; conditions: nci-h23, 48 h
HCT-15 = assay: Cytotoxicity against human HCT15 cells assessed as effect on cell growth at 10 uM incubated for 48 hrs by sulforhodamine B assay; conditions: hct-15, 48 h
HT-29 = assay: Cytotoxicity against human HT-29 cells assessed as effect on cell growth at 10 uM incubated for 48 hrs by sulforhodamine B assay; conditions: ht-29, 48 h
KM12 = assay: Cytotoxicity against human KM12 cells assessed as effect on cell growth at 10 uM incubated for 48 hrs by sulforhodamine B assay; conditions: km12, 48 h
SF-268 = assay: Cytotoxicity against human SF268 cells assessed as effect on cell growth at 10 uM incubated for 48 hrs by sulforhodamine B assay; conditions: sf-268, 48 h
SF-295 = assay: Cytotoxicity against human SF295 cells assessed as effect on cell growth at 10 uM incubated for 48 hrs by sulforhodamine B assay; conditions: sf-295, 48 h
SNB-19 = assay: Cytotoxicity against human SNB19 cells assessed as effect on cell growth at 10 uM incubated for 48 hrs by sulforhodamine B assay; conditions: snb-19, 48 h
U-251 = assay: Cytotoxicity against human U251 cells assessed as effect on cell growth at 10 uM incubated for 48 hrs by sulforhodamine B assay; conditions: u-251, 48 h
LOX IMVI = assay: Cytotoxicity against human LOXIMVI cells assessed as effect on cell growth at 10 uM incubated for 48 hrs by sulforhodamine B assay
UACC-257 = assay: Cytotoxicity against human UACC257 cells assessed as effect on cell growth at 10 uM incubated for 48 hrs by sulforhodamine B assay; conditions: uacc-257, 48 h
IGROV-1 = assay: Cytotoxicity against human IGROV1 cells assessed as effect on cell growth at 10 uM incubated for 48 hrs by sulforhodamine B assay; conditions: igrov-1, 48 h
NCI/ADR-RES = assay: Cytotoxicity against human NCI/ADR-RES cells assessed as effect on cell growth at 10 uM incubated for 48 hrs by sulforhodamine B assay
CAKI-1 = assay: Growth inhibition of human Caki1 cells assessed as growth percentage at 10 uM incubated for 48 hrs by sulforhodamine B assay; conditions: caki-1, 48 h
SN12C = assay: Cytotoxicity against human SN12C cells assessed as effect on cell growth at 10 uM incubated for 48 hrs by sulforhodamine B assay
UO-31 = assay: Cytotoxicity against human UO31 cells assessed as effect on cell growth at 10 uM incubated for 48 hrs by sulforhodamine B assay; conditions: uo-31, 48 h
PC-3 = assay: Cytotoxicity against human PC3 cells assessed as effect on cell growth at 10 uM incubated for 48 hrs by sulforhodamine B assay; conditions: pc-3, 48 h
BT-549 = assay: Cytotoxicity against human BT549 cells assessed as effect on cell growth at 10 uM incubated for 48 hrs by sulforhodamine B assay; conditions: bt-549, 48 h
T47D = assay: Cytotoxicity against human T47D cells assessed as effect on cell growth at 10 uM incubated for 48 hrs by sulforhodamine B assay
MDA-MB-468 = assay: Cytotoxicity against human MDA-MB-468 cells assessed as effect on cell growth at 10 uM incubated for 48 hrs by sulforhodamine B assay; conditions: mda-mb-468, 48 h

Measured: Activity

O=C(NCCc1ccccc1)[C@@H]1CCC(=O)N1Cc1ccc(Cl)cc1Cl
Non-Toxic: RPMI-8226 | NCI-H23 | HCT-15 | HT-29 | KM12 | SF-268 | SF-295 | SNB-19 | U-251 | LOX IMVI | UACC-257 | IGROV-1 | NCI/ADR-RES | CAKI-1 | SN12C | UO-31 | PC-3 | BT-549 | T47D | MDA-MB-468

O=C(NCc1ccc(Cl)cc1Cl)[C@@H]1CCC(=O)N1c1cccs1
Non-Toxic: RPMI-8226 | NCI-H23 | HCT-15 | HT-29 | KM12 | SF-268 | SF-295 | SNB-19 | U-251 | LOX IMVI | UACC-257 | IGROV-1 | NCI/ADR-RES | CAKI-1 | SN12C | UO-31 | PC-3 | BT-549 | T47D | MDA-MB-468

O=C(NCc1ccc(Cl)cc1Cl)[C@@H]1CCC(=O)N1Cc1ccccc1
Non-Toxic: RPMI-8226 | NCI-H23 | HCT-15 | HT-29 | KM12 | SF-268 | SF-295 | SNB-19 | U-251 | LOX IMVI | UACC-257 | IGROV-1 | NCI/ADR-RES | CAKI-1 | SN12C | UO-31 | PC-3 | BT-549 | T47D | MDA-MB-468

COC(=O)[C@@H]1C/C(=C\NCc2ccc(Cl)cc2Cl)C(=O)N1C(=O)OC
Non-Toxic: RPMI-8226 | NCI-H23 | HCT-15 | HT-29 | KM12 | SF-268 | SF-295 | SNB-19 | U-251 | LOX IMVI | UACC-257 | IGROV-1 | NCI/ADR-RES | CAKI-1 | SN12C | UO-31 | PC-3 | BT-549 | T47D | MDA-MB-468

CN(C)/C=C1\C[C@@H](C(=O)NCc2ccc(Cl)cc2Cl)N(c2cccs2)C1=O
Non-Toxic: RPMI-8226 | NCI-H23 | HCT-15 | HT-29 | KM12 | SF-268 | SF-295 | SNB-19 | U-251 | LOX IMVI | UACC-257 | IGROV-1 | NCI/ADR-RES | CAKI-1 | SN12C | UO-31 | PC-3 | BT-549 | T47D | MDA-MB-468

C[n+]1ccccc1C(=O)NCc1ccc(Cl)cc1Cl.[I-]
Non-Toxic: RPMI-8226 | NCI-H23 | HCT-15 | HT-29 | KM12 | SF-268 | SF-295 | SNB-19 | U-251 | LOX IMVI | UACC-257 | IGROV-1 | NCI/ADR-RES | CAKI-1 | SN12C | UO-31 | PC-3 | BT-549 | T47D | MDA-MB-468

CN1C(=O)CC[C@H]1C(=O)NCc1cc(C(F)(F)F)ccc1Cl
Non-Toxic: RPMI-8226 | NCI-H23 | HCT-15 | HT-29 | KM12 | SF-268 | SF-295 | SNB-19 | U-251 | LOX IMVI | UACC-257 | IGROV-1 | NCI/ADR-RES | CAKI-1 | SN12C | UO-31 | PC-3 | BT-549 | T47D | MDA-MB-468

O=C1N[C@H](C(=O)NCc2ccc(Cl)cc2Cl)C/C1=C/NCc1ccc(Cl)cc1Cl
Non-Toxic: RPMI-8226 | NCI-H23 | HCT-15 | HT-29 | KM12 | SF-268 | SF-295 | SNB-19 | U-251 | LOX IMVI | UACC-257 | IGROV-1 | NCI/ADR-RES | CAKI-1 | SN12C | UO-31 | PC-3 | BT-549 | T47D | MDA-MB-468

O=C(NCc1ccc(Cl)cc1Cl)[C@@H]1CCC(=O)N1c1nccs1
Non-Toxic: RPMI-8226 | NCI-H23 | HCT-15 | HT-29 | KM12 | SF-268 | SF-295 | SNB-19 | U-251 | LOX IMVI | UACC-257 | IGROV-1 | NCI/ADR-RES | CAKI-1 | SN12C | UO-31 | PC-3 | BT-549 | T47D | MDA-MB-468

O=C1CCCC(C(=O)NCc2ccc(Cl)cc2Cl)N1 (stereo not given)
Non-Toxic: RPMI-8226 | NCI-H23 | HCT-15 | HT-29 | KM12 | SF-268 | SF-295 | SNB-19 | U-251 | LOX IMVI | UACC-257 | IGROV-1 | NCI/ADR-RES | CAKI-1 | SN12C | UO-31 | PC-3 | BT-549 | T47D | MDA-MB-468

Cc1ccc(NC(=O)[C@@H]2CCC(=O)N2c2ccccc2)cc1
Non-Toxic: RPMI-8226 | NCI-H23 | HCT-15 | HT-29 | KM12 | SF-268 | SF-295 | SNB-19 | U-251 | LOX IMVI | UACC-257 | IGROV-1 | NCI/ADR-RES | CAKI-1 | SN12C | UO-31 | PC-3 | BT-549 | T47D | MDA-MB-468

O=C(NCc1ccc(Cl)cc1Cl)[C@@H]1CCC(=O)N1c1ccc(Cl)cc1
Non-Toxic: RPMI-8226 | NCI-H23 | HCT-15 | HT-29 | KM12 | SF-268 | SF-295 | SNB-19 | U-251 | LOX IMVI | UACC-257 | IGROV-1 | NCI/ADR-RES | CAKI-1 | SN12C | UO-31 | PC-3 | BT-549 | T47D | MDA-MB-468

CN(C)/C=C1\C[C@H]2C(=O)N(Cc3ccc(Cl)cc3Cl)C(N(C)C)N2C1=O (stereo not given in full)
Non-Toxic: RPMI-8226 | NCI-H23 | HCT-15 | HT-29 | KM12 | SF-268 | SF-295 | SNB-19 | U-251 | LOX IMVI | UACC-257 | IGROV-1 | NCI/ADR-RES | CAKI-1 | SN12C | UO-31 | PC-3 | BT-549 | T47D | MDA-MB-468

COc1ccc(N2C(=O)[C@@H]3C/C(=C\N(C)C)C(=O)N3C2N(C)C)cc1 (stereo not given in full)
Non-Toxic: RPMI-8226 | NCI-H23 | HCT-15 | HT-29 | KM12 | SF-268 | SF-295 | SNB-19 | U-251 | LOX IMVI | UACC-257 | IGROV-1 | NCI/ADR-RES | CAKI-1 | SN12C | UO-31 | PC-3 | BT-549 | T47D | MDA-MB-468
